{"source": "patent US5073571A", "about": "“Method of inhibiting virus” (priority 1989, dated 1991)", "key": {"HIV-1": {"test_system": "HIV-1", "test": "HIV-1 replication in H9 cells, p24 antigen ELISA", "format": "cell-based, HIV-1 strain HXB2gptX (in human H9 cells)", "conditions": "20-40 μM range", "method": "Media was changed every other day. The effect of these compounds on virus production was determined by measuring the reverse transcriptase (RT) activity in samples of the cell culture supernatants. […] Negative controls consisted of no additions or 0.1ethanol. The results of duplicate assays were averaged. Panel B -Concentration-dependent effects of 13-oxamyristic acid on HIV-1 replication as measured by RT activity (percent of untreated control) and the presence of p24 antigen (ng/ml determined by ELISA). Error bars indicate the S.E.M. of assays done in triplicate. […] Panel D - Toxicity of 13-oxamyristic acid determined by viable cell count (trypan blue exclusion), as well as by [^3 H]thymidine and [^3 H]leucine labeling (see under Materials and Methods, Example 16, below). The incorporation of these radiolabeled compounds was determined in the total cell population contained in a well after 10 days of treatment with the analog. […]\nAssay for HIV-1 Replication. […] The titer of the virus stock was determined by serial dilution using syncytia formation and reverse transcriptase activity (see below) as a measure of infectivity in H9 cells. […]\nVirus Assays. Virus was quantitated using supernatant solutions of cells harvested on day 8 (m.o.i.=0.01) or day 10 (m.o.i.=0.001) of treatment. […]"}, "uninfected H9 cells": {"test_system": "uninfected H9 cells", "test": "Metabolic labeling tests using uninfected H9 cells", "format": "cell-based, human", "conditions": "0.1 to 100 μM", "method": "Toxicity Studies. These analyses were conducted for both assay systems. Cell survival was determined by trypan-blue exclusion. The number of unstained cells/mL in the treated cultures was divided by the number of unstained cells/mL in the untreated control cultures and expressed as percent control. Protein synthesis was measured at the end of the treatment periods by metabolic labeling for 4 hrs with L-[4,5^3 H(N)]-leucine (2 μCi/mL media, specific activity =140 Ci/mmol). All cells contained in a given well of a 24 well plate were recovered by scraping, the protein precipitated by TCA (final concentration =10%) and the solution subsequently incubated at 100° C. for 5 min prior to passage over glass fiber filters (Whatman). In the case of the H-9 assay, treated or untreated cells were pulsed labeled at the conclusion of the 10 day incubation. For the MoMLV assay, labeling studies were performed on LZ1 virus producing cells at the conclusion of the 2 day treatment period. An additional control test was performed on NIH 3T3 cells that had never been exposed to virus but which had been incubated with media (± analog) for two days. DNA synthesis was assessed on day 10 of the H9 assay. Cells were labeled for 12 h with [5'-^3 H]thymidine (0.5 μCi/mL, specific activity =2 Ci/mmol). All the cells in a well were harvested by scraping, their nucleic acid precipitated with TCA (final concentration =10%), and then collected on glass fiber filters prior to counting.\nThe cellular toxicity of 13-oxamyristate was analyzed using three independent assays of cell viability. First, viable cell number was determined at the conclusion of the 10 day treatment period using trypan blue exclusion. The percentage of living cells in untreated, HIV-1 infected cultures was reduced by 50% compared to that of untreated, uninfected cells (FIG. 1D). This reflects the cytopathic effects encountered with this strain of HIV-1 [Ratner et al., Nature 313, 277-284 (1985)]. […] To further investigate this hypothesis, the effects of increasing concentrations of the analog on DNA and protein synthesis were determined."}}}
{"smiles": "COCCCCCCCCCCCC(=O)O", "note": "[13-oxamyristate, 12-(Methoxy)dodecanoic acid]", "values": [{"measurement": "reduction in virus replication (p24 ELISA)", "setting": "HIV-1", "value": "greater than 90%"}, {"measurement": "DNA synthetic rates", "setting": "uninfected H9 cells", "value": "no significant effects"}, {"measurement": "growth rates", "setting": "uninfected H9 cells", "value": "no significant effects"}, {"measurement": "protein synthetic rates", "setting": "uninfected H9 cells", "value": "no significant effects"}]}
